One assay deals with T1, Cellular ERK5 Activity (Homo sapiens, UniProt Q13164).
T1 construct: MEF2-response-element luciferase reporter (pGreenFire1)
Kind of assay: Inhibition of Cellular ERK5 Activity (cell-based assay, MEF2 luciferase reporter in SN12C cells). Conditions: renal cancer cell line SN12C, doxycycline-induced MEK5DD, 0.3-10000 nM, mean where repeated. Here is the method:
(§1) Two assays were performed to assess the ERK5 inhibitory activity of compounds of the Examples, a cell-based assay and a cell-free biochemical assay. Where repeat measurements were taken, the value reported is a mean average.
Inhibition of Cellular ERK5 Activity
The renal cancer cell line SN12C was transduced by a lentivirus pGreenFire1 MEF2 EF1 Neo (ref TR030VA-N) from SBI using standard infection protocol. pGreenFire1 MEF2 EF1 Neo allows the expression of luciferase gene under the control of minimal promoter with MEF2 transcriptional response elements. Cells harboring the reporter construct were selected by geneticin treatment. The selected cells were then transposed by a piggyback based plasmid pCM4007 allowing the expression of constitutively activated MEK5DD under control of TREG3 promoter, a doxycycline regulated promoter. Transposed cells were selected by puromycin treatment. Upon doxycycline treatment (1 μg/ml) MEK5DD was expressed. MEK5DD activates ERK5 that phosphorylates MEF2C protein. Activated MEF2C protein can bind to its transcriptional response elements. Then the luciferase is expressed. In a 96-well plate (96F nuncleon ref137101 thermofisher), 50,000 cells were inoculated in 142.5 μl of RPMI medium containing 10% fetal calf serum, 1% glutamine, and 1 μg/ml doxycycline. After 24 hours, compounds were added in 7.5 μl culture medium (with 2% DMSO to give a final concentration of 0.1%) in order to obtain the desired concentration (0.3-10000 nM). The luciferase activity was measured using the Kit Bright Glo Luminescent Cell Assay Cat E2610 (Promega) according to the manufacturer's protocol. Luminescence was determined using 0.2 second reading/well using a Tecan SPARK. IC50 values were calculated using XLFIT5 for Microsoft Excel using method 205. The IC50 values represent the concentration of compound which inhibits the measurable luminescence signal by 50% as compared to DMSO-treated control cells.
(In general: A reporter such as luciferase makes a cellular process visible.)

Assay [1] deals with T2, activated catalytic domain of protein ERK5 (Homo sapiens, UniProt Q13164).
T2 construct: purchased CarnaBiosciences #04-146
Kind of assay: Cell-Free Assay of ERK5 Inhibition (Time-Resolved Forster Resonance Energy Transfer). It counts as biochemical. The note with it: ERK5 4 nM, 1 mM ATP, 1 μM biotinylated 4EBP1 peptide, 30 min at 37° C.; TR-FRET; mean where repeated. As for the experimental part:
as §1
Cell-Free Assay of ERK5 Inhibition
An assay was performed to measure the capacity of each compound to inhibit ERK5 enzymatic activity. Compound potency was evaluated by Time-Resolved Forster Resonance Energy Transfer (FRET system). The activated catalytic domain of protein ERK5 (CarnaBiosciences #04-146) was mixed at 4 nM with varying concentrations of compound and incubated for 30 minutes at room temperature. A mixture of 1 mM ATP and 1 μM biotinylated synthetic peptide was added (Biosyntan GmbH). This synthetic peptide represents amino acids 30-52 of Eukaryotic translation initiation factor 4E-binding protein 1 (see, e.g., the sequence under accession No. NP_004086.1) biotinylated at the N-terminus. After 30 minutes at 37° C., the peptide phosphorylation by ERK5 was measured by addition of FRET reagents consisting of 12.5 µg/ml Streptavidin-XL665, 1 nM Anti-P-4EBP1 antibody and 300 ng/ml Anti-rabbit-K antibody. Following 90 minutes at room temperature fluorescent signals were read on the Pherastar FSX multimod detector from BMG Labtech (Exc° 340 nm, Em1 620 nm, Em2 665 nm). The IC50 values represent the concentration of compound which inhibits the measurable fluorescence signal by […] as compared to the DMSO only control.
In general terms: In TR-FRET formats the signal depends on donor and acceptor labels being close together.

As a reminder, the IC50 is the concentration that gives 50% inhibition. Read a high IC50 as lower potency.

T2 sequence (Q13164 55-347 limits assumed): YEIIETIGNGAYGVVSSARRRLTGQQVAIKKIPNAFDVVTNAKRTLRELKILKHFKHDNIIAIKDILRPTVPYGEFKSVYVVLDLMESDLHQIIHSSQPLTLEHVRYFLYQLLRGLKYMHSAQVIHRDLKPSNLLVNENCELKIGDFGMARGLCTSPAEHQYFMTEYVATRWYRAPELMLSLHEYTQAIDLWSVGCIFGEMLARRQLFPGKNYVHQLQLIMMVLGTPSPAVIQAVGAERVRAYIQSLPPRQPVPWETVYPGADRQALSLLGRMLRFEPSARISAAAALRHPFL
T1 sequence (Q13164 whole entry): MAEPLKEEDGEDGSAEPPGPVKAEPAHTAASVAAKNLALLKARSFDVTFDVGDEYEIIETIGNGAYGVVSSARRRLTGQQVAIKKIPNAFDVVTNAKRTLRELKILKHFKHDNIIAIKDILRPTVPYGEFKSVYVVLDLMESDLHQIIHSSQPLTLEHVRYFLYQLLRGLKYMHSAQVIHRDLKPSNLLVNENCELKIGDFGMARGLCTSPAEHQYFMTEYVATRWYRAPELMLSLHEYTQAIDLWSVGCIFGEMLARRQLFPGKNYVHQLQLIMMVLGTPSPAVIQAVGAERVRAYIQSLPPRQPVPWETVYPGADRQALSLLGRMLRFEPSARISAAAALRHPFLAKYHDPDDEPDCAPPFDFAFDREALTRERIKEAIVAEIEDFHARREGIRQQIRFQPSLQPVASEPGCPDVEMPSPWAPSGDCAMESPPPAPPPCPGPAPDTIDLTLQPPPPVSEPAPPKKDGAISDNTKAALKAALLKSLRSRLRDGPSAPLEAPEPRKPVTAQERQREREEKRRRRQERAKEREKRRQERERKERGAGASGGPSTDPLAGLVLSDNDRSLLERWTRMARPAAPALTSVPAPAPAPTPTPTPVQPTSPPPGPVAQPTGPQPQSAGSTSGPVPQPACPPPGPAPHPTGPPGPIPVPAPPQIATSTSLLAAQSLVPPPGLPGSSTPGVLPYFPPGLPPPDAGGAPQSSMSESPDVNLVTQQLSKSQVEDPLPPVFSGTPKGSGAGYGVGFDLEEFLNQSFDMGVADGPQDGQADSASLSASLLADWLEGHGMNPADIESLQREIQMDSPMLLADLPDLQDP

Turning to `O=C(c1ccc(OC(F)(F)F)cc1)N1CCC(c2c[nH]c3ncc(N4CCC(F)(F)CC4)nc23)CC1` [Example 41, [4-[2-(4,4-difluoro-1-piperidyl)-5H-pyrrolo[2,3-b]pyrazin-7-yl]-1-piperidyl]-[4-(trifluoromethoxy)phenyl]methanone], the half-inhibitory concentration (IC50) on Cellular ERK5 Activity is 308 nM; in assay [1], above 30000 nM.
For `O=C(c1ccc(OC(F)(F)F)cc1)N1CCC(c2c[nH]c3ncc(NC4CCOC4)nc23)CC1` (racemic) [Example 36, (rac)-[4-[2-[[tetrahydrofuran-3-yl]amino]-5H-pyrrolo[2,3-b]pyrazin-7-yl]-1-piperidyl]-[4-(trifluoromethoxy)phenyl]methanone], the values for the IC50 (against Cellular ERK5 Activity; in assay [1]) were 124 nM and 291 nM, respectively.
Regarding `COCCCc1cnc2[nH]cc(C3CCN(C(=O)c4ccc(OC(F)(F)F)cc4)CC3)c2n1` [Example 6, [4-[2-(3-Methoxypropyl)-5H-pyrrolo[2,3-b]pyrazin-7-yl]-1-piperidyl]-[4-(trifluoromethoxy)phenyl]methanone], the 50% inhibitory concentration (IC50) against Cellular ERK5 Activity was 118 nM; in assay [1], 403 nM.
Take `O=C(C1CCCCC1)N1CCC(c2c[nH]c3ncc(C4CCOCC4)nc23)CC1` [Example 23, Cyclohexyl-[4-(2-tetrahydropyran-4-yl-5H-pyrrolo[2,3-b]pyrazin-7-yl)-1-piperidyl]methanone]: the IC50 against Cellular ERK5 Activity was found to be 4800 nM; in assay [1], 13300 nM.
Consider `Nc1cc(OC(F)(F)F)ccc1C(=O)N1CCC(c2c[nH]c3ncc([C@H]4CC[C@H](O)CC4)nc23)CC1` [Example 30, trans-[2-amino-4-(trifluoromethoxy)phenyl]-[4-[2-(4-hydroxycyclohexyl)-5H-pyrrolo[2,3-b]pyrazin-7-yl]-1-piperidyl]methanone], for which, in assay [1], the IC50 is 39 nM.
For the molecule `Nc1cc(OC(F)(F)F)ccc1C(=O)N1CCC(c2c[nH]c3ncc(O[C@H]4CCOC4)nc23)CC1` [Example 29, [2-amino-4-(trifluoromethoxy)phenyl]-[4-[2-[(3S)-tetrahydrofuran-3-yl]oxy-5H-pyrrolo[2,3-b]pyrazin-7-yl]-1-piperidyl]methanone], the half-inhibitory concentration (IC50) was determined as 215 nM against Cellular ERK5 Activity and 399 nM in assay [1].
On to `O=C(c1ccc(OC(F)(F)F)cc1)N1CCC(c2c[nH]c3ncc(NC4CCOC4)nc23)CC1` (single isomer, unassigned; isomer 1) [Example 32, [4-[2-[[tetrahydrofuran-3-yl]amino]-5H-pyrrolo[2,3-b]pyrazin-7-yl]-1-piperidyl]-[4-(trifluoromethoxy)phenyl]methanone, Isomer 1], for which the figures for the IC50 (at Cellular ERK5 Activity; in assay [1]) were 79 nM and 361 nM, respectively.
In the case of `O=C(c1ccc(OC(F)(F)F)cc1)N1CCC(c2c[nH]c3ncc(NC4CCOC4)nc23)CC1` (single isomer, unassigned; isomer 2) [Example 33, [4-[2-[[tetrahydrofuran-3-yl]amino]-5H-pyrrolo[2,3-b]pyrazin-7-yl]-1-piperidyl]-[4-(trifluoromethoxy)phenyl]methanone, Isomer 2], the IC50 against Cellular ERK5 Activity was determined as 126 nM; in assay [1] it was 335 nM.
The corresponding values for `Nc1cc(OC(F)(F)F)ccc1C(=O)N1CCC(c2c[nH]c3ncc(OC4COC4)nc23)CC1` [Example 44, [2-amino-4-(trifluoromethoxy)phenyl]-[4-[2-(oxetan-3-yloxy)-5H-pyrrolo[2,3-b]pyrazin-7-yl]-1-piperidyl]methanone] are 272 nM and 639 nM.
`CN1CCC(c2cnc3[nH]cc(C4CCN(C(=O)c5ccc(OC(F)(F)F)cc5)CC4)c3n2)CC1` [Example 4, [4-[2-(1-Methyl-4-piperidyl)-5H-pyrrolo[2,3-b]pyrazin-7-yl]-1-piperidyl]-[4-(trifluoromethoxy)phenyl]methanone]: the values for the IC50 (against Cellular ERK5 Activity; in assay [1]) were 60 nM and 66 nM, respectively.
On Cellular ERK5 Activity, `O=C(c1ccc(OC(F)(F)F)cc1)N1CCC(c2c[nH]c3ncc(C4CCOCC4)nc23)C1` (racemic) [Example 25, (rac)-[3-(2-Tetrahydropyran-4-yl-5H-pyrrolo[2,3-b]pyrazin-7-yl)pyrrolidin-1-yl]-[4-(trifluoromethoxy)phenyl]methanone] came in with a 50% inhibitory concentration (IC50) of 230 nM.
As to `Nc1cc(OC(F)(F)F)ccc1C(=O)N1CCC(c2c[nH]c3ncc(NC4COC4)nc23)CC1` [Example 27, [2-amino-4-(trifluoromethoxy)phenyl]-[4-[2-(oxetan-3-ylamino)-5H-pyrrolo[2,3-b]pyrazin-7-yl]-1-piperidyl]methanone], the figures for the IC50 (at Cellular ERK5 Activity; in assay [1]) were 5430 nM and 5560 nM, respectively.
The corresponding values for `CN1CCC(c2cnc3[nH]cc(C4CCN(C(=O)c5ccc(OC(F)(F)F)cc5N)CC4)c3n2)CC1` [Example 1, [2-Amino-4-(trifluoromethoxy)phenyl]-[4-[2-(1-methyl-4-piperidyl)-5H-pyrrolo[2,3-b]pyrazin-7-yl]-1-piperidyl]methanone] are 20 nM and 17 nM.
Consider `Nc1cc(OC(F)(F)F)ccc1C(=O)N1CCC(c2c[nH]c3ncc(NC4CCOCC4)nc23)CC1` [Example 39, [2-amino-4-(trifluoromethoxy)phenyl]-[4-[2-(tetrahydropyran-4-ylamino)-5H-pyrrolo[2,3-b]pyrazin-7-yl]-1-piperidyl]methanone], for which the results for the concentration for half-maximal inhibition (IC50) (against Cellular ERK5 Activity; in assay [1]) were 37 nM and 307 nM, respectively.
On to `Nc1cc(S(F)(F)(F)(F)F)ccc1C(=O)N1CCC(c2c[nH]c3ncc(C4CCN(C5CC5)CC4)nc23)CC1` [Example 19, [2-Amino-4-(pentafluoro-λ^6-sulfanyl)phenyl]-[4-[2-(1-cyclopropyl-4-piperidyl)-5H-pyrrolo[2,3-b]pyrazin-7-yl]-1-piperidyl]methanone], for which the IC50 against Cellular ERK5 Activity was found to be 94 nM; in assay [1], 176 nM.
Molecule `Nc1cc(OC(F)(F)F)ccc1C(=O)N1CCC(c2c[nH]c3ncc(C4CCOCC4)nc23)C1` (racemic) [Example 24, (rac)-[2-Amino-4-(trifluoromethoxy)phenyl]-[3-(2-tetrahydropyran-4-yl-5H-pyrrolo[2,3-b]pyrazin-7-yl)pyrrolidine-1-yl]methanone] registered a concentration for half-maximal inhibition (IC50) against Cellular ERK5 Activity of 261 nM.
Consider `O=C(c1ccc(OC2CC2)cc1)N1CCC(c2c[nH]c3ncc(C4CCOCC4)nc23)CC1` [Example 21, [4-(Cyclopropoxy)phenyl]-[4-(2-tetrahydropyran-4-yl-5H-pyrrolo[2,3-b]pyrazin-7-yl)-1-piperidyl]methanone], for which the half-maximal inhibitory concentration (IC50) at Cellular ERK5 Activity is 352 nM; in assay [1] it was 359 nM.
In the case of `O=C(c1ccc(OC(F)(F)F)cc1)N1CCC(c2c[nH]c3ncc(C4CCOC4)nc23)CC1` (racemic) [Example 5, (rac)-[4-(2-Tetrahydrofuran-3-yl-5H-pyrrolo[2,3-b]pyrazin-7-yl)-1-piperidyl]-[4-(trifluoromethoxy)phenyl]methanone], the results for the concentration for half-maximal inhibition (IC50) (against Cellular ERK5 Activity; in assay [1]) were 88 nM and 212 nM, respectively.
The corresponding values for `O=C(c1ccc(OC(F)(F)F)cc1)N1CCC(c2c[nH]c3ncc(C4CCN(C5CC5)CC4)nc23)CC1` [Example 11, [4-[2-(1-Cyclopropyl-4-piperidyl)-5H-pyrrolo[2,3-b]pyrazin-7-yl]-1-piperidyl]-[4-(trifluoromethoxy)phenyl]methanone] are 112 nM and 76 nM.
The corresponding values for `Nc1cc(OC(F)(F)F)ccc1C(=O)N1CCC(c2c[nH]c3ncc(C4CCOC4)nc23)CC1` (single isomer, unassigned) [Example 13, [2-Amino-4-(trifluoromethoxy)phenyl]-[4-(2-tetrahydrofuran-3-yl-5H-pyrrolo[2,3-b]pyrazin-7-yl)-1-piperidyl]methanone] are 49 nM and 93 nM.
On to `Nc1cc(OC(F)(F)F)ccc1C(=O)N1CCC(c2c[nH]c3ncc(C4CCOC4)nc23)CC1` (racemic) [Example 12, (rac)-[2-Amino-4-(trifluoromethoxy)phenyl]-[4-(2-tetrahydrofuran-3-yl-5H-pyrrolo[2,3-b]pyrazin-7-yl)-1-piperidyl]methanone], for which half-maximal inhibition in assay [1] (IC50) required 130 nM.

Values taken from patent US20260308157A1, “Pyrrolopyrazine Compounds, Preparation Thereof and Therapeutic Uses Thereof” (Sanofi, priority 2023, published 2026).
